# Measured values reported in patent publication US20250186541A1, “DLL3 TARGETING PEPTIDES AND CONSTRUCTS THEREOF” (MARIANA ONCOLOGY INC., priority 2023, published 2025).
# Bridge positions count the residues as written; N and C are the ends. Square brackets hold non-standard residues; d marks the D form. Peptide text beside a SMILES is read from it. * marks the point of attachment. DOTA = O=C(O)CN1CCN(CC(=O)O)CCN(CC(=O)*)CCN(CC(=O)O)CC1; Trp(7-aza) = N[C@@H](Cc1c[nH]c2ncccc12)C(=O)O; Pro(trans-4-F) = O=C(O)[C@@H]1C[C@@H](F)CN1; Bip = N[C@@H](Cc1ccc(-c2ccccc2)cc1)C(=O)O; Pro(cis-4-F) = O=C(O)[C@@H]1C[C@H](F)CN1; Hyp = O=C(O)[C@@H]1C[C@@H](O)CN1; αMeD = C[C@](N)(CC(=O)O)C(=O)O; Pip = O=C(O)[C@@H]1CCCCN1; hSer = N[C@@H](CCO)C(=O)O; Nle = CCCC[C@H](N)C(=O)O; Ahx = NCCCCCC(=O)O
# Target: T1, human DLL3 (Homo sapiens, UniProt Q9NYJ7)
# T1 construct: biotin (biotinylated)
# T1 sequence (Q9NYJ7 27-618): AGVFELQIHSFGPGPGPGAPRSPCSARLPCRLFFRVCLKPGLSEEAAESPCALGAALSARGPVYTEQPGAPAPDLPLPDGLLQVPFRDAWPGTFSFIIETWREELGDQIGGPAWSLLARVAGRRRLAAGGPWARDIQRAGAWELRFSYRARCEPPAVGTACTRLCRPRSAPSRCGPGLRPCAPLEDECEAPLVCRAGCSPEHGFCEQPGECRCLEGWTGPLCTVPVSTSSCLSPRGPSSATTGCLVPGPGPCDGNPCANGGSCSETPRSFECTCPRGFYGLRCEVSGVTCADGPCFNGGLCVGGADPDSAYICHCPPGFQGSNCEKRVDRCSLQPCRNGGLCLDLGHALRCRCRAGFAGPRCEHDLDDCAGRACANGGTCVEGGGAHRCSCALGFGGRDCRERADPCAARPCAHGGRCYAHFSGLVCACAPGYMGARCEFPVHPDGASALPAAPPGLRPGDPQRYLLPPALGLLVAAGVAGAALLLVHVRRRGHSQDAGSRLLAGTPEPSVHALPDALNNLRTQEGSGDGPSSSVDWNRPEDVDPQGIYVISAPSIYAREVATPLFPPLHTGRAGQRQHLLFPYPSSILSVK
# Assay: Affinity determination by Surface Plasmon Resonance (SPR), Biacore, 1:1 binding model
# Settings: biotinylated human DLL3 on streptavidin chip, 25° C.; NB = nonbinding
# Summary of the method: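 SPR with biotinylated human DLL3 captured on a streptavidin chip, with a reference surface subtracted. Samples were injected at several concentrations at 100 μL/min in phosphate buffer with 137 mM NaCl, 2.7 mM KCl, 0.05% P20 and 2% DMSO. Kinetic and affinity constants came from a 1:1 binding fit.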
row,Structure (SMILES),Kd
1,"CSCC[C@H](NC(C)=O)C(=O)N[C@@H](CO)C(=O)N[C@@H](CC(=O)O)C(=O)N[C@H]1CSSC[C@@H](C(=O)N2C[C@H](F)C[C@H]2C(=O)N[C@@H](Cc2ccccc2)C(=O)N[C@@H](CC(=O)O)C(=O)N[C@H](CCCCNC(=O)CN2CCN(CC(=O)O)CCN(CC(=O)O)CCN(CC(=O)O)CC2)C(N)=O)NC(=O)[C@H](CC(N)=O)NC(=O)[C@H](Cc2c[nH]c3ccccc23)NC(=O)[C@H](CCC(N)=O)NC(=O)[C@H](CC(C)C)NC(=O)[C@H](Cc2c[nH]c3ccccc23)NC1=O [compound 42, Ac-M-S-D-C(3)-W-L-Q-W-N-C(3)-(trans4Fluoro-P)-F-D-D-Lys(DOTA)-CONH2] (Ac-MSDCWLQWNC[Pro(trans-4-F)]FD[dK](DOTA)-NH2; disulfide 4-10)",10 nM
2,"CSCC[C@H](NC(C)=O)C(=O)N[C@@H](CO)C(=O)N[C@@H](CC(=O)O)C(=O)N[C@H]1CSSC[C@@H](C(=O)N2C[C@@H](F)C[C@H]2C(=O)N[C@@H](Cc2ccccc2)C(=O)N[C@@H](CC(=O)O)C(=O)N[C@H](CCCCNC(=O)CN2CCN(CC(=O)O)CCN(CC(=O)O)CCN(CC(=O)O)CC2)C(N)=O)NC(=O)[C@H](CC(N)=O)NC(=O)[C@H](Cc2c[nH]c3ccccc23)NC(=O)[C@H](CCC(N)=O)NC(=O)[C@H](CC(C)C)NC(=O)[C@H](Cc2c[nH]c3ccccc23)NC1=O [compound 43, Ac-M-S-D-C(3)-W-L-Q-W-N-C(3)-(cis4Fluoro-P)-F-D-D-Lys(DOTA)-CONH2] (Ac-MSDCWLQWNC[Pro(cis-4-F)]FD[dK](DOTA)-NH2; disulfide 4-10)",28 nM
3,"CSCC[C@H](NC(C)=O)C(=O)N[C@@H](CO)C(=O)N[C@@H](CC(=O)O)C(=O)N[C@H]1CSSC[C@@H](C(=O)N2C[C@H](O)C[C@H]2C(=O)N[C@@H](Cc2ccccc2)C(=O)N[C@@H](CC(=O)O)C(=O)N[C@H](CCCCNC(=O)CN2CCN(CC(=O)O)CCN(CC(=O)O)CCN(CC(=O)O)CC2)C(N)=O)NC(=O)[C@H](CC(N)=O)NC(=O)[C@H](Cc2c[nH]c3ccccc23)NC(=O)[C@H](CCC(N)=O)NC(=O)[C@H](CC(C)C)NC(=O)[C@H](Cc2c[nH]c3ccccc23)NC1=O [compound 44, Ac-M-S-D-C(3)-W-L-Q-W-N-C(3)-(trans4OH-P)-F-D-D-Lys(DOTA)-CONH2] (Ac-MSDCWLQWNC[Hyp]FD[dK](DOTA)-NH2; disulfide 4-10)",26 nM
4,"CSCC[C@H](NC(C)=O)C(=O)N[C@@H](CO)C(=O)N[C@@H](CC(=O)O)C(=O)N[C@H]1CSSC[C@@H](C(=O)N2CCCC[C@H]2C(=O)N[C@@H](Cc2ccccc2)C(=O)N[C@@H](CC(=O)O)C(=O)N[C@H](CCCCNC(=O)CN2CCN(CC(=O)O)CCN(CC(=O)O)CCN(CC(=O)O)CC2)C(N)=O)NC(=O)[C@H](CC(N)=O)NC(=O)[C@H](Cc2c[nH]c3ccccc23)NC(=O)[C@H](CCC(N)=O)NC(=O)[C@H](CC(C)C)NC(=O)[C@H](Cc2c[nH]c3ccccc23)NC1=O [compound 47, Ac-M-S-D-C(3)-W-L-Q-W-N-C(3)-(Pip)-F-D-D-Lys(DOTA)-CONH2] (Ac-MSDCWLQWNC[Pip]FD[dK](DOTA)-NH2; disulfide 4-10)",26 nM
5,"CSCC[C@H](NC(C)=O)C(=O)N[C@@H](CO)C(=O)N[C@@H](CC(=O)O)C(=O)N[C@H]1CSSC[C@@H](C(=O)N2CCC[C@H]2C(=O)N[C@@H](Cc2ccccc2)C(=O)N[C@@](C)(CC(=O)O)C(=O)N[C@H](CCCCNC(=O)CN2CCN(CC(=O)O)CCN(CC(=O)O)CCN(CC(=O)O)CC2)C(N)=O)NC(=O)[C@H](CC(N)=O)NC(=O)[C@H](Cc2c[nH]c3ccccc23)NC(=O)[C@H](CCC(N)=O)NC(=O)[C@H](CC(C)C)NC(=O)[C@H](Cc2c[nH]c3ccccc23)NC1=O [compound 53, Ac-M-S-D-C(3)-W-L-Q-W-N-C(3)-P-F-(aMeD)-D-Lys(DOTA)-CONH2] (Ac-MSDCWLQWNCPF[αMeD][dK](DOTA)-NH2; disulfide 4-10)",> 300 nM

# Further lines, results first:
row,Kd,Structure (SMILES)
1,> 300 nM,"CSCC[C@H](NC(C)=O)C(=O)N[C@@H](CO)C(=O)N[C@@H](CC(=O)O)C(=O)N[C@H]1CSSC[C@@H](C(=O)N2CCC[C@H]2C(=O)N[C@@H](Cc2ccccc2)C(=O)N[C@@H](CCO)C(=O)N[C@H](CCCCNC(=O)CN2CCN(CC(=O)O)CCN(CC(=O)O)CCN(CC(=O)O)CC2)C(N)=O)NC(=O)[C@H](CC(N)=O)NC(=O)[C@H](Cc2c[nH]c3ccccc23)NC(=O)[C@H](CCC(N)=O)NC(=O)[C@H](CC(C)C)NC(=O)[C@H](Cc2c[nH]c3ccccc23)NC1=O [compound 54, Ac-M-S-D-C(3)-W-L-Q-W-N-C(3)-P-F-(hSer)-D-Lys(DOTA)-CONH2] (Ac-MSDCWLQWNCPF[hSer][dK](DOTA)-NH2; disulfide 4-10)"
2,> 300 nM,"CSCC[C@H](NC(C)=O)C(=O)N[C@@H](CO)C(=O)N[C@@H](CC(=O)O)C(=O)N[C@H]1CSSC[C@@H](C(=O)N2CCC[C@H]2C(=O)N[C@@H](Cc2ccccc2)C(=O)N[C@@H](CC(=O)O)C(=O)N[C@H](CCCCNC(=O)CN2CCN(CC(=O)O)CCN(CC(=O)O)CCN(CC(=O)O)CC2)C(N)=O)NC(=O)[C@H](CC(N)=O)NC(=O)[C@H](Cc2c[nH]c3ccccc23)NC(=O)[C@H](CCC(N)=O)NC(=O)[C@H](CC(C)C)NC(=O)[C@H](Cc2ccc(-c3ccccc3)cc2)NC1=O [compound 55, Ac-M-S-D-C(3)-(BIP)-L-Q-W-N-C(3)-P-F-D-D-Lys(DOTA)-CONH2] (Ac-MSDC[Bip]LQWNCPFD[dK](DOTA)-NH2; disulfide 4-10)"
3,> 300 nM,"CSCC[C@H](NC(C)=O)C(=O)N[C@@H](CO)C(=O)N[C@@H](CC(=O)O)C(=O)N[C@H]1CSSC[C@@H](C(=O)N2CCC[C@H]2C(=O)N[C@@H](Cc2ccccc2)C(=O)N[C@@H](CC(=O)O)C(=O)N[C@H](CCCCNC(=O)CN2CCN(CC(=O)O)CCN(CC(=O)O)CCN(CC(=O)O)CC2)C(N)=O)NC(=O)[C@H](CC(N)=O)NC(=O)[C@H](Cc2c[nH]c3ccccc23)NC(=O)[C@H](CCC(N)=O)NC(=O)[C@H](CC(C)C)NC(=O)[C@H](Cc2c[nH]c3ncccc23)NC1=O [compound 57, Ac-M-S-D-C(3)-(7Aza-W)-L-Q-W-N-C(3)-P-F-D-D-Lys(DOTA)-CONH2] (Ac-MSDC[Trp(7-aza)]LQWNCPFD[dK](DOTA)-NH2; disulfide 4-10)"
4,> 300 nM,"CSCC[C@H](NC(C)=O)C(=O)N[C@@H](CO)C(=O)N[C@@H](CC(=O)O)C(=O)N[C@H]1CSSC[C@@H](C(=O)N2CCC[C@H]2C(=O)N[C@@H](Cc2ccccc2)C(=O)N[C@@H](CC(=O)O)C(=O)N[C@H](CCCCNC(=O)CN2CCN(CC(=O)O)CCN(CC(=O)O)CCN(CC(=O)O)CC2)C(N)=O)NC(=O)[C@H](CC(N)=O)NC(=O)[C@H](Cc2ccc(-c3ccccc3)cc2)NC(=O)[C@H](CCC(N)=O)NC(=O)[C@H](CC(C)C)NC(=O)[C@H](Cc2c[nH]c3ccccc23)NC1=O [compound 60, Ac-M-S-D-C(3)-W-L-Q-(BIP)-N-C(3)-P-F-D-D-Lys(DOTA)-CONH2] (Ac-MSDCWLQ[Bip]NCPFD[dK](DOTA)-NH2; disulfide 4-10)"
5,15.9 nM,"CCCC[C@@H]1NC(=O)[C@H](Cc2c[nH]c3ccccc23)NC(=O)[C@@H](NC(=O)[C@H](CC(=O)O)NC(=O)[C@H](CO)NC(=O)[C@H](CCSC)NC(C)=O)CSSC[C@@H](C(=O)N2CCC[C@H]2C(=O)N[C@@H](Cc2ccccc2)C(=O)N[C@@H](CC(=O)O)C(=O)N[C@H](CCCCNC(=O)CN2CCN(CC(=O)O)CCN(CC(=O)O)CCN(CC(=O)O)CC2)C(N)=O)NC(=O)[C@H](CC(N)=O)NC(=O)[C@H](Cc2c[nH]c3ccccc23)NC(=O)[C@H](CCC(N)=O)NC1=O [compound 68, Ac-M-S-D-C(3)-W-(Nle)-Q-W-N-C(3)-P-F-D-D-Lys(DOTA)-CONH2] (Ac-MSDCW[Nle]QWNCPFD[dK](DOTA)-NH2; disulfide 4-10)"
6,11 nM,"CC(C)C[C@@H]1NC(=O)[C@H](Cc2c[nH]c3ccccc23)NC(=O)[C@@H](NC(=O)[C@H](CC(=O)O)NC(=O)[C@H](CO)NC(=O)CCCCCNC(=O)CN2CCN(CC(=O)O)CCN(CC(=O)O)CCN(CC(=O)O)CC2)CSSC[C@@H](C(=O)N2CCC[C@H]2C(=O)N[C@@H](Cc2ccccc2)C(=O)N[C@@H](CC(=O)O)C(N)=O)NC(=O)[C@H](CC(N)=O)NC(=O)[C@H](Cc2c[nH]c3ccccc23)NC(=O)[C@H](CCC(N)=O)NC1=O [compound 72, DOTA-Ahx-S-D-C(3)-W-L-Q-W-N-C(3)-P-F-D-CONH2] ({DOTA-Ahx}-SDCWLQWNCPFD-NH2; disulfide 3-9)"
7,> 100 nM,"CC(C)C[C@@H]1NC(=O)[C@H](Cc2c[nH]c3ccccc23)NC(=O)[C@@H](NC(=O)[C@H](CC(=O)O)NC(=O)[C@H](CO)NC(=O)CCCCCNC(=O)CN2CCN(CC(=O)O)CCN(CC(=O)O)CCN(CC(=O)O)CC2)CSSC[C@@H](C(=O)N2CCC[C@H]2C(=O)N[C@@H](Cc2ccccc2)C(=O)N[C@@H](CC(=O)O)C(=O)N[C@H](CCCCN)C(N)=O)NC(=O)[C@H](CC(N)=O)NC(=O)[C@H](Cc2c[nH]c3ccccc23)NC(=O)[C@H](CCC(N)=O)NC1=O [compound 73, DOTA-Ahx-S-D-C(3)-W-L-Q-W-N-C(3)-P-F-D-(D-Lys)-NH2] ({DOTA-Ahx}-SDCWLQWNCPFD[dK]-NH2; disulfide 3-9)"
